Source: patent publication US11084826B2, “RSV antiviral pyrazolo- and triazolo-pyrimidine compounds” (Janssen Sciences Ireland Unlimited Company, priority 2015, dated 2021)

How the values were obtained:
[1] = Cytotoxicity in HeLa cells, ATP content measured with the ATPlite kit; assay type: cell-based; settings: human, TOX HELA pCC50
[2] = test system: rgRSV224 virus; assay: Antiviral activity: inhibition of rgRSV224 (GFP-expressing RSV) replication in HeLa cells, GFP expression read-out; assay type: cell-based, respiratory syncytial virus (RSV); settings: human respiratory syncytial virus, HeLa, read-out: RSV HELA pEC50, rgRSV224 virus (MOI=1) in HeLa cells, GFP read-out (converted)
Outline: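 HeLa cells (3,000/well) were infected with GFP-expressing rgRSV224 (MOI=1) in the presence of 9 serial 4-fold compound dilutions (0.05% DMSO) and incubated at 37° C, 5% CO2. After three days, GFP expression was measured by laser microscopy. EC50 is the concentration giving 50% inhibition of GFP expression.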

| SMILES | CC50 at 3 days [1] | EC50 [2] | melting point |
| --- | --- | --- | --- |
| CC(C)Cc1cc(C(=O)N2CCCCC[C@H]2C)nc2cc(-c3ccc(-c4ccc(C(=O)O)cn4)cc3F)nn12 [Compound F41] | 22400 nM | 36.3 nM | 197.2 °C |
| CCc1cc(C(=O)N2CCCCCC2C)nc2nc(-c3ccc(NC(=O)C4CC4)cc3F)nn12 (stereo not drawn) [Compound T1] | > 100000 nM | 550 nM | 210 to 215 °C |
| CCc1cc(C(=O)N2CCCCC2C)nc2cc(-c3ccc(NC(=O)C4CC4)cc3)nn12 (stereo not drawn) [Compound E15] | > 96200 nM | 832 nM | 260 to 265 °C |
| CCc1cc(C(=O)N2CCCCCC2C)nc2cc(-c3ccc(-c4ncc(C)cn4)cc3F)nn12 (stereo not drawn) [Compound F17] | > 25100 nM | 646 nM | 140 to 145 °C |
| CCc1cc(C(=O)N2CCCCC[C@H]2C)nc2cc(-c3ccc(C(N)=O)cc3F)nn12 [Compound I1] | > 25100 nM | 53.7 nM | 180 °C |
| CCc1cc(C(=O)N2CCCCCC2C)nc2cc(-c3ccc(C(=O)O)cc3F)nn12 (stereo not drawn) [Compound K2] | > 25100 nM | 562 nM | 210 °C |
| CCc1cc(C(=O)N2CCCCCC2C)nc2cc(-c3ccc(NC(=O)NCC4CC4)cc3)nn12 (stereo not drawn) [Compound B9] | > 100000 nM | 501 nM | 165 to 170 °C |
| CCc1cc(C(=O)N2CCCCC[C@H]2C)nc2cc(-c3ccc(N4CC=C(C(=O)O)CC4)cc3F)nn12 [Compound W11] | 58900 nM | 234 nM | 277.45 °C |
| CCc1cc(C(=O)N2CCCCC[C@H]2C)nc2cc(-c3ccc(C(=O)O)cc3F)nn12 [Compound K5] | > 25100 nM | 309 nM | 148 °C |
| CC1c2ccsc2CCN1C(=O)c1cc(C2CC2)n2nc(-c3ccc(N4CC[C@H](C(=O)O)C4)cc3F)cc2n1 (single isomer, unassigned) [Compound W37] | 45700 nM | 5.62 nM | 231.1 °C |
| CCc1cc(C(=O)N2CCCCCC2C)nc2cc(-c3ccc(/C=C/C(N)=O)cc3F)nn12 (stereo not drawn) [Compound N1] | > 25100 nM | 129 nM | 140 to 145 °C |
| CCc1cc(C(=O)N2CCCCCC2C)nc2cc(-c3ccc(-c4cn(C)c(C)n4)cc3F)nn12 (stereo not drawn) [Compound F10] | > 25100 nM | 692 nM | 118 to 119 °C |
| CCc1cc(C(=O)N2CCCCCN2C)nc2cc(-c3ccc(-c4ccc(C(=O)O)cn4)cc3F)nn12 [Compound F35] | > 100000 nM | 162 nM | 268.78 °C |
| CCCNC(=O)c1ccc(-c2cc3nc(C(=O)N4CCCCCC4C)cc(CC)n3n2)c(F)c1 (stereo not drawn) [Compound L3] | > 25100 nM | 240 nM | 188 °C |
| CCc1cc(C(=O)N2CCCCCC2C)nc2cc(-c3cc4cccnc4cc3F)nn12 (stereo not drawn) [Compound A24] | > 25100 nM | 302 nM | 145 to 150 °C |
| CC1CCCCCN1C(=O)c1cc(N(C)C2CCCCC2)n2nc(-c3ccc(NC(=O)C4CC4)cc3)cc2n1 (stereo not drawn) [Compound E19] | > 100000 nM | 537 nM | 261 to 262 °C |
| CCc1cc(C(=O)N2CCc3c([nH]c4ccccc34)C2C)nc2cc(-c3ccc(C(N)=O)cc3F)nn12 (stereo not drawn) [Compound I38] | > 25100 nM | 1780 nM | 205 to 210 °C |
| CCc1cc(C(=O)N2CCCCCC2C)nc2cc(-c3ccc(C(=O)NCCN(C)C)cc3F)nn12 (stereo not drawn) [Compound L2] | > 25100 nM | 550 nM | 178 °C |

| SMILES | CC50 at 3 days [1] | EC50 [2] | melting point |
| --- | --- | --- | --- |
| CC1CCCCCN1C(=O)c1cc(N(C)C)n2nc(-c3ccc(C(N)=O)cc3F)cc2n1 (stereo not drawn) [Compound I30] | > 25100 nM | 240 nM | 215 to 216 °C |
| CCc1cc(C(=O)N2CCCCCC2C)nc2cc(-c3ccc(S(=O)(=O)N(C)C)cc3F)nn12 (stereo not drawn) [Compound P1] | > 25100 nM | 2820 nM | 120 °C |
| CNc1cc(C(=O)N2CCCCCC2C)nc2cc(-c3ccc(C(N)=O)cc3F)nn12 (stereo not drawn) [Compound I29] | > 25100 nM | 295 nM | 179 to 181 °C |
| CCc1cc(C(=O)N2CCCCC[C@H]2C)nc2cc(-c3ccc(C4CC=C(C(=O)O)CC4)cc3F)nn12 (mixture of isomers) [Compound F69] | > 25100 nM | 195 nM | 176.26 °C |
| CCc1cc(C(=O)N2CCn3nccc3C2C)nc2cc(-c3ccc(/C=C/C(=O)O)cc3F)nn12 (stereo not drawn) [Compound M41] | > 25100 nM | 794 nM | 225 to 230 °C |
| C[C@@H]1CCCCCN1C(=O)c1cc(C2(C)COC2)n2nc(-c3ccc(-n4cc(C(=O)O)cn4)cc3F)cc2n1 (racemic) [Compound W36] | > 25100 nM | 151 nM | 223.2 °C |
| CCCC(C)N(C)C(=O)c1cc(CC)n2nc(-c3ccc(NC(=O)NCC4CCCO4)cc3F)cc2n1 (stereo not drawn) [Compound B2] | > 100000 nM | 407 nM | 180 to 185 °C |
| CCc1cc(C(=O)N2CCn3cccc3C2C)nc2cc(-c3ccc(/C=C/C(=O)O)cc3F)nn12 (single isomer, unassigned) [Compound M44] | > 25100 nM | 18.2 nM | 127.94 °C |
| CCc1cc(C(=O)N2CCCCCC2C)nc2cc(-c3ccc(NC(=O)NCC4CCCO4)cc3C)nn12 (stereo not drawn) [Compound B4] | 55000 nM | 257 nM | 123 °C |
| CCc1cc(C(=O)N2CCCCCC2C)nc2cc(-c3ccc(-c4cncc(F)c4)cc3F)nn12 (stereo not drawn) [Compound F7] | > 25100 nM | 2090 nM | 95 to 96 °C |
| CCc1cc(C(=O)N2CCCCC2C)nc2cc(-c3ccc(NC(=O)NCC4CCCO4)cc3)nn12 (stereo not drawn) [Compound B7] | > 100000 nM | 631 nM | 175 to 180 °C |
| CCc1cc(C(=O)N2CCCCCC2C)nc2cc(-c3ccc(NC(=O)OCC4CCCN4C)cc3F)nn12 (stereo not drawn) [Compound C5] | 13800 nM | 178 nM | 165 to 170 °C |
| CCc1cc(C(=O)N2CCCC[C@H]2C)nc2cc(-c3ccc(C(N)=O)cc3)nn12 [Compound A27] | > 25100 nM | 871 nM | 160 to 165 °C |
| CC1c2ccsc2CCN1C(=O)c1cc(C2(C)CC2)n2nc(-c3ccc(-c4ccc(C(=O)O)cn4)cc3F)cc2n1 (racemic) [Compound F68] | 51300 nM | 43.7 nM | 203.36 °C |
| CCc1cc(C(=O)N2CCn3cccc3C2C)nc2cc(-c3ccc(C(N)=O)cc3F)nn12 (stereo not drawn) [Compound I35] | > 25100 nM | 43.7 nM | 242 °C |
| CCc1cc(C(=O)N2CCCCC[C@H]2C)nc2cc(-c3ccc([C@@H]4C[C@@H]4C(=O)O)cc3F)nn12 (racemic) [Compound O16] | > 100000 nM | 170 nM | 333.46 °C |
| C[C@@H]1CCCCCN1C(=O)c1cc(C2(C)CC2)n2nc(-c3ccc(OCC(=O)O)cc3F)cc2n1 (racemic) [Compound F48] | > 100000 nM | 437 nM | 204.93 °C |
